We go through 59 compounds from a melting point compilation (Tetko et al.; mined from patent text by program, amines drawn as free bases though some values may be those of a salt).

In general, melting point refers to the temperature, or range, at which the solid turns liquid.

As to `CC(=O)OC1CC2=CCC3C4CCC(C(C)CI)C4(C)CCC3C2(C)C(OC(C)=O)C1` (centres undefined), the melting point fell in the range of 135 to 136 °C.

Turning to `CC(=O)Nc1ccc(C(=S)N2CCCCC2)cc1`, the melting point lay within 202 to 203 °C.

With `CC(=O)Nc1ccc(C(=O)c2cc(-c3ccc(NC(C)=O)cc3)c(N3CCOCC3)s2)cc1`, the melting point turned out to be 152 °C.

As for `COCCc1nc2c(N)nc3ccccc3c2n1CCCCCS(=O)(=O)c1ccccc1`, the melting point lay in the range of 172 to 175 °C.

`N#CCNC(=O)C1(NC(=O)c2ccc(N3CCN(C(=O)OCC4c5ccccc5-c5ccccc54)CC3)cc2)CCCCC1` yielded a melting point of 192 to 194 °C.

In turn, `Nc1ncc(-c2ccncn2)c(-c2ccco2)n1` had a melting point of 222 °C.

For the compound `Cc1ccc(S(=O)(=O)OCC2Cn3c(nc4ccccc43)-c3ccccc3O2)cc1` (centres undefined), the melting point was 166 °C.

Compound `C=CCOc1cccc(C(=O)c2ccccc2C(=O)O)c1` displayed a melting point of 109 °C.

The compound `Cc1ccc(NC(=O)N(C)N)cc1NC(=O)N(C)N` registered a melting point of 164 to 165 °C.

For the compound `CC(CN1CCN(c2cccc(C(F)(F)F)c2)CC1)C(O)c1ccc2c(c1)oc(=O)n2C` (centres undefined), the melting point is 92 °C.

Compound `COc1ccc2c(=O)c(C(N)=O)c(N)oc2c1` gave a melting point of 265 to 266 °C.

`COC(=O)c1cccc(Cn2c(C(=O)Nc3nc(-c4cc(OC)c(C)cc4OC)c(CCC4CCCCC4)s3)cc3cc(C)cc(C)c32)c1` returned a melting point of 219 to 220 °C.

Regarding `Cc1coc(NCCN2CCC(Nc3nc4ccccc4n3Cc3ccc(F)cc3)CC2)n1`, the melting point came to 178 °C.

For `C=CCOc1cccc(-c2cn3ccc4ccccc4c3n2)c1`, the melting point was in the range of 83 to 85 °C.

Compound `O=C(c1cc(-c2ccccc2)c2sccc2c1)N1CCCCC1` gave a melting point of 112 °C.

As to `CCOC(=O)C1(O)CC(C(F)(F)F)=NN1c1ncccc1Cl` (centres undefined), the melting point fell in the range of 78 to 78.5 °C.

Take `O=C1N(Cc2nc3ncccc3o2)c2ccccc2C12COc1cc3c(cc12)OCO3` (centres undefined): the melting point lay in the range of 202 to 204 °C.

Compound `CCC(CC)Oc1cc(C)nc(Oc2c(C)cc(C)cc2C)c1C` registered a melting point of 72.5 to 74 °C.

For `Nc1ccc(SCc2csc(N)n2)cc1`, the melting point was 130 to 132 °C.

`CC[C@@H](c1ccccc1)N(Cc1ccc(C(=O)N2CCC[C@@H]2CO)cc1)S(=O)(=O)c1ccc(Cl)cc1` had a melting point of 120 to 121 °C.

As for `O=C(N[C@H](Cc1ccc(C(F)(F)F)o1)[C@@H](O)c1ccc(F)cc1)c1ccc(F)c2ccccc12` (racemic), the melting point is 153 to 154 °C.

In the case of `C=C(C(=O)c1ccc(C=CC(=O)O)cc1)c1c(F)c(F)c(F)c(F)c1F`, the melting point lay in the range of 214 to 217 °C.

Consider `CC(C)(C)c1cc(C=Cc2n[nH]c(=S)o2)cc(C(C)(C)C)c1O`, for which the melting point is 210 °C.

In the case of `Cc1nc(-c2ccc(F)cc2)c(COc2ccc(-c3nc4cc(C(=O)O)ccc4n3C3CCCCC3)cc2)s1`, the melting point was in the range of 196 to 198 °C.

`O=C(Nc1ccc(C(F)(F)F)cc1)NC1CCN(C(=O)c2cccnc2)CC1` returned a melting point of 213 to 217 °C.

Compound `CCCOc1ncc(NCC(=O)OC)cc1-c1nc2c(CCC)nn(C)c2c(=O)[nH]1` displayed a melting point of 175 °C.

With `O=C(NOCCBr)Nc1ccc(Cl)c(Cl)c1`, the melting point is 126 °C.

As to `CC1C(c2ccccc2)NC(c2ccccc2)C(C)C1OC(=O)CCCCCCCCC(=O)OC1C(C)C(c2ccccc2)NC(c2ccccc2)C1C` (centres undefined), the melting point was in the range of 128 to 135 °C.

Compound `CN1CCn2nc(Nc3cc(Cl)nn(COCC[Si](C)(C)C)c3=O)cc2C1` registered a melting point of 68 to 69 °C.

`CC(C)On1c(C2CCCCC2)nc2c(N)nc3ccccc3c21` returned a melting point of 175 to 178 °C.

`CCCN(CCC)C1CCc2cccc(-c3ccc4ccccc4n3)c2C1` (centres undefined): the melting point stood at 82 °C.

In the case of `NS(=O)(=O)c1ccc(-c2cnn(C3=CC=CC(F)(F)C3F)c(=O)c2-c2ccc(F)cc2)cc1` (centres undefined), the melting point fell in the range of 190 to 193 °C.

Take `COC(=O)c1cc(-c2ccc(OC)c(OC)c2)nn(CC=Cc2ccc(Cl)cc2)c1=O`: the melting point lay within 118 to 119 °C.

As to `COC(=O)c1ccc(SC)c(-c2cc(C)no2)c1C`, the melting point lay within 94 to 95 °C.

`Cc1nc2c(OCc3c(Cl)ccc(N(C)C(=O)CNC(N)=O)c3Cl)cccn2c1Br` showed a melting point of 147 to 149 °C.

`O=C(O)C1=Cc2cc(C#Cc3ccccc3)ccc2NC1C(F)(F)F` (centres undefined) showed a melting point of 218 to 219 °C.

Compound `O=S(=O)(Oc1cccc(OS(=O)(=O)C(F)(F)F)c1OS(=O)(=O)C(F)(F)F)C(F)(F)F` registered a melting point of 47.5 to 48.5 °C.

Compound `Cc1c(-c2ccc3sc(=O)n(C)c3c2)nc2ccccn12` returned a melting point of 206 to 208 °C.

Turning to `c1cc(OCc2ccc3ccccc3n2)cc(OCc2ccccc2-c2nnn[nH]2)c1`, the melting point was 166 to 170 °C.

Compound `COc1cc(OC)c(F)c(N=Cc2cnc(SC)nc2NC2CC2)c1F` returned a melting point of 172 to 174 °C.

As to `CC(C)CC(=O)c1c(-c2ccc3cc(OCC(=O)O)cc(Br)c3c2)oc2ccccc12`, the melting point lay in the range of 140 to 142 °C.

On to `CC(C)c1c(C=O)c(-c2ccc(F)cc2)c2ccccn12`, for which the melting point lay in the range of 94 to 95 °C.

For `O=C(c1ccccc1Cl)c1cccnc1Br`, the melting point was 76.3 °C.

For `CN1Cc2c(-c3nc(CCl)co3)ncn2-c2cccc(Cl)c2C1=O`, the melting point fell in the range of 249 to 251 °C.

The compound `COc1cc(C(=O)NCCc2ccc(N)cc2)cc(OC)c1OC(C)=O` returned a melting point of 178 to 180 °C.

Compound `COc1cccc(C2=C(c3ccc(C(=O)N4Cc5cccn5Cc5ccccc54)cc3C)CCCC2)c1` returned a melting point of 91 to 94 °C.

Compound `CCCCCCCCCCCCc1ccc(CCC(COC(C)=O)(COC(C)=O)NC(C)=O)cc1` came in with a melting point of 111 to 113 °C.

As for `O=[N+]([O-])c1ccc(Oc2ccc(C34CC5CC(C3)CC(c3ccc(Oc6ccc([N+](=O)[O-])c(O)c6)cc3)(C5)C4)cc2)cc1O`, the melting point fell in the range of 118 to 122 °C.

Consider `O=C(c1ccccc1)N1CCN(CCCN2C(=O)c3ccccc3C2=O)CC1`, for which the melting point was 100 to 104 °C.

With `CSC[C@H](NC(C)=O)C(=O)NO`, the melting point is 126 to 127 °C.

Consider `COc1ccc(C[C@@H](CO)NC(=O)c2ccnc(Br)c2)cc1OC`, for which the melting point lay in the range of 151 to 153 °C.

The compound `CCC(C)(O)CNc1c(N)c(Cl)nc2ccccc12` (centres undefined) had a melting point of 99 to 101 °C.

Consider `COc1cc2c(cc1CNC1CCCNC1c1ccccc1)N(C)C(=O)CC2(C)C` (centres undefined), for which the melting point was more than 280 °C.

As for `CON=C(C(=O)OC)c1ccccc1Oc1ccccc1`, the melting point fell in the range of 109 to 110 °C.

For the compound `Cc1cc(CCNc2ncnc3c(F)ccc(F)c23)ccc1O`, the melting point was in the range of 244 to 251 °C.

In turn, `Cc1cc(SCN2C(=O)c3ccccc3C2=O)cc(C(C)(C)C)c1O` had a melting point of 114 to 116 °C.

As for `COC(=O)c1ccc(CC(C)N(CC(=O)c2ccc(OCc3ccccc3)c(NC(N)=O)c2)Cc2ccccc2)cc1` (centres undefined), the melting point lay in the range of 140 to 145 °C.

`c1cc(-c2ccncn2)cc(-n2cnc3cc(-c4ccon4)ccc32)c1` had a melting point of 214 to 215 °C.

`CCOC(=O)C1=C(COCCNc2nc(N)n[nH]2)NC(C)=C(C(=O)OC)C1c1cccc(C(F)(F)F)c1Cl` (centres undefined): the melting point lay within 144 to 145 °C.
